From patent US10899764B2, “Imidazo isoindole derivative, preparation method therefor and medical use thereof” (Jiangsu Hengrui Medicine Co., Ltd., priority 2015, dated 2021) come the findings set out here.

One data set addresses human IDO1 (Homo sapiens (Human), UniProt P14902). Kind of data set: Inhibition activity on human IDO1 (enzyme assay, absorbance at 480 nm). It counts as biochemical. As to conditions: purified recombinant human IDO1, 1 hour at 37° C.; read-out: IC50 for inhibiting the activity of human IDO1. The method, then:
Assay for Determining the Inhibition Activity of the Present Compounds on Human IDO1
Human IDO1 activity was tested in vitro by the following method.
This method is used to determine the inhibition effect of the compounds of the present invention on the activity of human IDO1.
The human IDO1 gene was transferred to Pet30a plasmid by gene cloning, and then transferred to competent Escherichia coli Rosseta. The IDO1 gene was scaled-up by culturing in liquid LB (Luria-Bertani) medium [which was prepared per liter according to “Molecular Cloning A Laboratory Manual” (J. Sambrook, D. W. Russell)]). The bacteria were collected and lysed by ultrasonic waves. The purified IDO1 was obtained by eluting from a column.
For testing, 24 μL of enzyme (IDO1) was diluted 100 times with 50 mM KPB to 2400 μL. The concentration of the enzyme solution was 2.6 ng/μL. A 96 well reaction plate (AXYGEN, PCR-96-FLT-C) (hereinafter referred to as the “reaction plate”) was added with the enzyme solution at 24 μL/well. The blank well was added with 24 μL of KPB [Preparation of KPB buffer (50 mM): 6.805 g of KH2PO4 was weighed using an analytical balance, and placed into a 1000 mL beaker, deionized water was added with a measuring cylinder to 900 ml, the pH was adjusted to 6.5 by 1M KOH, then the mixture was introduced into a 1 L measuring cylinder, and water was added to 1 L. It was stored at 4° C.]. Then, 1 μL of a compound or DMSO was added into the corresponding wells in the reaction plate. Preparation of solution A: 200 μL of 500 mM L-sodium ascorbate were added with 1050 μL of KPB, then the mixture was mixed uniformly for 3 seconds at the maximum speed in a turbine mixer. Solution B: 100 μL of 10 mM tryptophan were added with 100 μL of 100,000 unit/mL catalase, 5 μL of 10 mM methylene blue, and 1050 μL of KPB successively, then the mixture was mixed uniformly for 3 seconds at the maximum speed in a turbine mixer. Then, 1200 μL of solution A and 1200 μL of solution B were taken and mixed uniformly for 3 seconds at the maximum speed in a turbine mixer. The mixture was added to the reaction plate at 24 μL/well. The reaction plate was placed in a plate centrifuge and centrifuged for 15 seconds at the maximum speed, so that the reaction liquids converged to the bottom. The reaction mixture was mixed uniformly for 30 seconds on a shaker, and incubated for 1 hour at 37° C. in a constant temperature incubator. In the reaction plate, 30% (W/V) trichloroacetic acid was added at 10 μL/well, then the mixture was incubated for 15 minutes at 65° C. in an incubator. The reaction plate was centrifuged in a centrifuge for 5 minutes at 4700 RPM at room temperature. […] Then, 2% (W/V) 4-(dimethylamino)benzaldehyde/glacial acetic acid solution was added at 40 μL/well, and the mixture was mixed uniformly for 1 minute on a shaker at the maximum speed. After incubation for 2 minutes at room temperature, the absorbance at 480 nm was read on a Synergy HT (BIOTEK) reader.
The inhibition activity of the compounds of the present invention on human IDO1 was tested by the assay described above.

Data set [1] is described as follows: Pharmacokinetics assay in SD rats after intragastrical administration. It counts as in vivo. The following applies: both sexes, Sprague-Dawley, rat, plasma, po, intragastric, 10 mg/kg. As to the method: Sprague-Dawley (SD) rats were used as test animals. […] The pharmacokinetic behavior of the compounds of the present invention was studied and evaluated in rats.
Eight (8) healthy adult SD rats, half male and half female, were purchased from SINO-BRITSH SIPPR/BK LAB. […]
The samples were stored in heparinized test tubes, and centrifuged for 10 minutes at 3,500 rpm to separate blood plasma. The plasma samples were stored at −20° C. The rats were fed 2 hours after administration.
(§1) The concentration of the test compounds in rat plasma after intragastric administration was determined by LC/MS/MS.

The nature of data set [2]: Pharmacokinetics assay in c57bl/6 mice after intragastric administration. It counts as in vivo. As to conditions: mouse, plasma, po, female c57bl/6 mice, 3 mg/kg. As to the method: c57bl/6 mice were used as test animals. […] The pharmacokinetic behavior of the compounds of the present invention was studied and evaluated in c57bl/6 mice.
Eighteen (18) female c57bl/6 mice, were purchased from SINO-BRITSH SIPPR/BK LAB. ANIMAL LTD., CO.
The appropriate amount of each test compound was weighed, and added with 0.5% CMC-Na to prepare a 1 mg/mL suspension by an ultrasonic method.
After an overnight fast, 18 female c57bl/6 mice were equally divided into 2 groups, 9 mice per group, and administered the test compounds intragastrically at an administration volume of 0.2 mL/kg.
The samples were stored in heparinized test tubes, and centrifuged for 10 minutes at 3,500 rpm to separate blood plasma. The plasma samples were stored at −20° C.
as §1

[3] abbreviates: read-out: Apparent Distribution Volume Vz/F.
Setting [4] is: read-out: Mean Residence Time MRT.

Where a name gives a salt, the structure may show the parent alone.

Sequence of human IDO1 (P14902 whole entry): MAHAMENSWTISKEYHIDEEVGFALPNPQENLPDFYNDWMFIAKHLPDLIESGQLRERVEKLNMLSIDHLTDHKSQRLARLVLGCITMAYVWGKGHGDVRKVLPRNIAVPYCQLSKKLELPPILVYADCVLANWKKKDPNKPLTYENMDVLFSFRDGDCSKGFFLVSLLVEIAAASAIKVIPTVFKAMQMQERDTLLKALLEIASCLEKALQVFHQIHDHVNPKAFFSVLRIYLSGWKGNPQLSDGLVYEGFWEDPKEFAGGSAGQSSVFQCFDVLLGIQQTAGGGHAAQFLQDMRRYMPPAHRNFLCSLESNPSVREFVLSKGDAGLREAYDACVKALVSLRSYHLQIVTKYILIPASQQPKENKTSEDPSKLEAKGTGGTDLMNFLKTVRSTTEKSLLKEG

As usually defined, the IC50 is the point on the concentration scale where inhibition reaches its midpoint. The term AUC denotes concentration integrated over time. In general, half-life refers to the time needed for the level to fall by half in the phase considered. As a reminder, the MRT is the average time that molecules of a dose stay in the body. As usually defined, the Cmax is the peak of the concentration-time curve. As to `Fc1cccc(N2CCC(C3c4c(F)cccc4-c4cncn43)CC2)c1` (centres unmarked) [Example 3, 6-fluoro-5-(1-(3-fluorophenyl)piperidin-4-yl)-5H-imidazo[5,1-a]isoindole trifluoroacetate], the IC50 on human IDO1 was 71.7 nM. The Vd/F in data set [1] (setting [3]) is 14.1 ± 1.72 L/kg. Further, the AUC in data set [1] (read-out: Area Under Curve AUC) came out at 2620 ± 977 ng·h/mL. The CL/F in data set [1] (read-out: Clearance CLz/F) is 70.9 ± 26.4 mL/min/kg. The half-life in data set [1] (read-out: Half-Life T½ (converted)) was 2.54 ± 0.91 h. In addition, the MRT in data set [1] (setting [4]) stood at 2.72 ± 0.36 h. Also, the Cmax in data set [1] (read-out: Plasma Conc. Cmax) was 1070 ± 524 ng/mL.
As for `OCCn1cc(-c2ccc(N3CCC([C@H]4c5c(F)cccc5-c5cncn54)CC3)cc2)cn1` [Example 41, (S)-2-(4-(4-(4-(6-fluoro-5H-imidazo[5,1-a]isoindol-5-yl)piperidin-1-yl)phenyl)-1H-pyrazol-1-yl)ethanol], the IC50 on human IDO1 is 9.22 nM. The Vd/F in data set [2] (setting [3]) is 1.28 L/kg. Further, in data set [2] (read-out: Area Under Curve AUC), the AUC was 4630 ng·h/mL. The CL/F in data set [2] (read-out: Clearance CLz/F) was 10.8 mL/min/kg. Further, the half-life in data set [2] (read-out: Half-Life t½ (converted)) was 2.06 h. The MRT in data set [2] (setting [4]) came to 1.36 h. The Cmax in data set [2] (read-out: Plasma Conc. Cmax) was 1670 ng/mL.
